Assay results published in the supplement of paper PMC10307832.

What was measured:
Test in all cases: relative viability (nuclei count vs DMSO), 5 days (fraction); higher = more cells survive
[1] = compound: C[C@@H](N)c1ccc(C(=O)Nc2ccnc3[nH]ccc23)cc1 + CC(=O)Nc1cccc(-n2c(=O)n(C3CC3)c(=O)c3c(Nc4ccc(I)cc4F)n(C)c(=O)c(C)c32)c1 [Trametinib] (partner 0.02 µM)
Method in brief: (§1)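 Relative viability divides the nuclei count in treated wells by that in vehicle wells. Lung cancer cell lines were seeded in 1536-well plates, dosed by pin tool the next day, and fixed and stained after 5 days in one step with final 0.05% Triton X-100, 1% formaldehyde and 1 ug/ml Hoechst. Dosing was a single drug or a fixed anchor-drug dose plus five library-drug doses (not always all listed) in √10 steps, and values are medians of duplicate plates imaged at 4×.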

[2] = compound: C[C@@H](N)c1ccc(C(=O)Nc2ccnc3[nH]ccc23)cc1 + N=C(N)NC(=N)NCCc1ccccc1 [Phenformin] (partner 250 µM)
Method in brief: as §1

[3] = compound: C1CNCCC1C2=CC(=NN2)C3=CC=NC=C3 + COc1cccc2cc(-c3nc([C@H]4CC[C@H](C(=O)O)CC4)n4ncnc(N)c34)[nH]c12 [OSI-027] (partner 0.5 µM)
Method in brief: as §1

[4] = compound: C1CNCCC1C2=CC(=NN2)C3=CC=NC=C3 + Cc1nc(Nc2ncc(C(=O)Nc3c(C)cccc3Cl)s2)cc(N2CCN(CCO)CC2)n1 [Dasatinib] (partner 0.075 µM)
Method in brief: as §1

| Cell Line | relative viability ([1]; first compound 0.04 µM) | relative viability ([1]; first compound 0.1265 µM) | relative viability ([1]; first compound 0.4 µM) | relative viability ([1]; first compound 1.265 µM) | relative viability ([1]; first compound 4 µM) | relative viability ([2]; first compound 0.04 µM) | relative viability ([2]; first compound 0.1265 µM) | relative viability ([2]; first compound 0.4 µM) | relative viability ([2]; first compound 1.265 µM) | relative viability ([2]; first compound 4 µM) | relative viability ([3]; first compound 0.08 µM) | relative viability ([3]; first compound 0.8 µM) | relative viability ([3]; first compound 2.53 µM) | relative viability ([3]; first compound 8 µM) | relative viability ([4]; first compound 0.08 µM) | relative viability ([4]; first compound 0.8 µM) | relative viability ([4]; first compound 2.53 µM) | relative viability ([4]; first compound 8 µM) |
| --- | --- | --- | --- | --- | --- | --- | --- | --- | --- | --- | --- | --- | --- | --- | --- | --- | --- | --- |
| NCI-H727 | 0.41 | 0.432 | 0.404 | 0.466 | 0.467 | 0.583 | 0.653 | 0.669 | 0.748 | 0.756 | 0.613 | 0.579 | 0.816 | 0.815 | 0.489 | 0.5 | 0.33 | 0.328 |
| HARA | 0.918 | 1.01 | 0.804 | 0.549 | 0.936 | – | 0.481 | 0.495 | – | 0.355 | 0.552 | 0.524 | 0.627 | 0.404 | 0.217 | 0.3 | 0.196 | 0.187 |
| NCI-H2228 | 0.556 | 0.428 | 0.886 | 0.395 | 0.475 | 0.354 | 0.393 | 0.315 | 0.33 | 0.357 | 0.61 | 0.653 | 0.649 | 0.689 | 0.594 | 0.572 | 0.531 | 0.484 |
| LCLC-97TM1 | 0.211 | 0.193 | 0.227 | 0.259 | 0.18 | 0.418 | 0.458 | 0.521 | 0.365 | 0.427 | 0.57 | 0.508 | 0.519 | 0.531 | 0.875 | 0.784 | 0.923 | 0.758 |
| LC-2-ad | 0.957 | 0.911 | 0.883 | 0.926 | 0.727 | 0.549 | 0.599 | 0.609 | – | 0.558 | – | 0.868 | 0.936 | 0.908 | – | 0.647 | 0.761 | 0.739 |
| SK-LU-1 | 0.422 | 0.506 | 0.625 | 0.299 | 0.473 | 0.433 | 0.611 | 0.488 | 0.365 | 0.405 | 0.386 | 0.346 | 0.346 | 0.342 | 0.156 | 0.181 | 0.206 | 0.166 |
| EKVX | 0.482 | 0.446 | 0.396 | 0.556 | 0.22 | 0.228 | 0.245 | 0.241 | 0.124 | 0.222 | 0.646 | 0.72 | 0.734 | 0.718 | 0.576 | 0.565 | 0.645 | 0.525 |
| HCC-827 | – | 0.703 | 0.758 | 0.763 | 0.653 | 0.424 | 0.462 | 0.423 | 0.394 | 0.406 | 0.666 | 0.673 | 0.806 | 0.782 | 0.366 | 0.228 | 0.302 | 0.308 |
